From PubChem BioAssay (NCI)
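How tested: cells in 96-well plates exposed to compound for 48 hours at five concentrations. At the TGI there is no net growth.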

Key:
Assay in all cases: inhibition of tumour cell growth, NCI panel, 48 h
[1] = test system: SNB-19 CNS
[2] = test system: SK-MEL-2 melanoma
[3] = test system: HOP-62 NSCLC
[4] = test system: SR leukemia
[5] = test system: 786-0 renal
[6] = test system: MOLT-4 leukemia
[7] = test system: SF-539 CNS
[8] = test system: HOP-92 NSCLC
[9] = test system: CAKI-1 renal
[10] = test system: NCI-H460 lung
[11] = test system: OVCAR-8 ovarian
[12] = test system: RXF 393 renal
[13] = test system: SK-OV-3 ovarian
[14] = test system: HCC-2998 colon
[15] = test system: SK-MEL-5 melanoma
[16] = test system: DU-145 prostate
[17] = test system: MDA-MB-231 breast
[18] = test system: MDA-N

Row | SMILES | TGI [1] | TGI [2] | TGI [3] | TGI [4] | TGI [5] | TGI [6] | TGI [7] | TGI [8] | TGI [9] | TGI [10] | TGI [11] | TGI [12] | TGI [13] | TGI [14] | TGI [15] | TGI [16] | TGI [17] | TGI [18]
1 | COc1ccccc1NC(=S)N/N=C/c1c(C)n(C)n(-c2ccccc2)c1=O | > 100 µM | > 100 µM | > 100 µM | > 100 µM | > 100 µM | > 100 µM | > 100 µM | > 100 µM | > 100 µM | > 100 µM | > 100 µM | > 100 µM | > 100 µM | > 100 µM | > 100 µM | > 100 µM | > 100 µM | 
2 | CCN(CC)c1cccc2c1/C(=N/O)CCCC2 | > 100 µM | > 100 µM | > 100 µM | > 100 µM | > 100 µM | > 100 µM |  |  |  | > 100 µM | > 100 µM | > 100 µM | > 100 µM |  | > 100 µM |  |  | 
3 | CC(C)(O)/C=C\P(=O)(O)O | > 100 µM | > 100 µM | > 100 µM | > 100 µM | > 100 µM |  | > 100 µM | > 100 µM | > 100 µM | > 100 µM | > 100 µM | > 100 µM | > 100 µM | > 100 µM | > 100 µM | > 100 µM |  | > 100 µM
4 | COc1ccc(C2=C(Cl)c3cc(OC)c(OC)cc3C2OC)cc1OC (stereo unspecified) | > 100 µM | > 100 µM | > 100 µM |  | > 100 µM | > 100 µM | > 100 µM | > 100 µM | > 100 µM | > 100 µM | > 100 µM | > 100 µM |  | > 100 µM | > 100 µM |  |  | 
5 | CC(C)OP(=O)(OC(C)C)/C(Cl)=N/Nc1ccc([N+](=O)[O-])cc1 | > 100 µM | > 100 µM | > 100 µM | > 100 µM | > 100 µM | > 100 µM | > 100 µM | > 100 µM | > 100 µM | > 100 µM | > 100 µM |  |  | > 100 µM | > 100 µM |  |  | 
6 | OC(c1ccc(F)cc1)C(F)(F)c1nc2ccccc2o1 (stereo unspecified) | > 100 µM | > 100 µM | > 100 µM | > 100 µM | > 100 µM | > 100 µM | > 100 µM | > 100 µM | > 100 µM | > 100 µM | > 100 µM | > 100 µM | > 100 µM | > 100 µM | > 100 µM | > 100 µM | > 100 µM | 
7 | CCCNC(=S)/N=C/c1c(O)cc(C)oc1=O | > 100 µM | > 100 µM | > 100 µM |  | > 100 µM | > 100 µM | > 100 µM | > 100 µM | > 100 µM | > 100 µM | > 100 µM |  | > 100 µM | > 100 µM | > 100 µM | > 100 µM | > 100 µM | > 100 µM
8 | CC[C@H](C)[C@H]1NC(=O)[C@@H](NC(=O)[C@@H](CC(C)C)N(C)C(=O)C2CCCN2C(=O)[C@H](C)O)[C@@H](C)OC(=O)[C@H](Cc2ccc(OC)cc2)N(C)C(=O)[C@@H]2CCCN2C(=O)[C@H](CCCCNC(=O)OCc2ccccc2)NC(=O)[C@H](C)C(=O)[C@H](C(C)C)OC(=O)C[C@@H]1O (stereo partly specified) | > 25 µM | 10.1 µM | > 25 µM | > 25 µM | > 25 µM | > 25 µM | > 25 µM | > 25 µM | > 25 µM | > 25 µM | > 25 µM | > 25 µM | > 25 µM | 9.79 µM | > 25 µM | > 25 µM |  | > 25 µM
9 | CCN(CC)C(=O)Cc1c(C(=O)N(CC)CC)c(=O)nc2sccn12 | > 100 µM | > 100 µM | > 100 µM | > 100 µM | > 100 µM | > 100 µM | > 100 µM | > 100 µM |  | > 100 µM | > 100 µM | > 100 µM | > 100 µM | > 100 µM |  |  |  | 
10 | O=C(O)CN1C=C(C(=O)c2cc3ccccc3n2S(=O)(=O)c2ccccc2)CCC1 | > 100 µM | > 100 µM | > 100 µM | > 100 µM | > 100 µM | > 100 µM | > 100 µM | > 100 µM | > 100 µM | > 100 µM | > 100 µM | > 100 µM |  | > 100 µM | 71.8 µM | > 100 µM | > 100 µM | 
11 | c1ccc([P+](CCSCCSCC[P+](c2ccccc2)(c2ccccc2)c2ccccc2)(c2ccccc2)c2ccccc2)cc1 | > 100 µM | > 100 µM | > 100 µM |  | > 100 µM | > 100 µM | > 100 µM | > 100 µM |  | > 100 µM | > 100 µM | > 100 µM | > 100 µM | > 100 µM | > 100 µM | > 100 µM | > 100 µM | > 100 µM
12 | CNNC1=NS(=O)(=O)c2cc(C#N)c(Cl)cc2S1 | > 10 µM | > 10 µM | > 10 µM |  | > 10 µM | > 10 µM | > 10 µM |  | > 10 µM | > 10 µM | > 10 µM | > 10 µM | > 10 µM | > 10 µM | > 10 µM | > 10 µM | > 10 µM | > 10 µM
13 | CC(=O)C1=C(C)N2C(=NC3=C(CCc4ccccc43)C2c2ccc(F)cc2)S1 (stereo unspecified) | > 100 µM | > 100 µM | > 100 µM |  | > 100 µM | 6.54 µM | > 100 µM | > 100 µM |  |  | > 100 µM | > 100 µM | > 100 µM | > 100 µM | > 100 µM | > 100 µM | > 100 µM | > 100 µM
14 | O=c1[nH]c2ccccc2c(=O)n1/N=C/c1ccc(O)cc1 | > 100 µM | > 100 µM | 48 µM | > 100 µM | > 100 µM | > 100 µM | > 100 µM | 90.4 µM | > 100 µM | > 100 µM | > 100 µM |  | > 100 µM |  | > 100 µM | > 100 µM | > 100 µM | 
